Measured values taken from patent US8470010B2, “Systems and methods for treating superficial venous malformations like spider veins” (Green Medical, Inc., priority 2006, dated 2013).

Columns and labels:
[1] = test system: cancer (solid tumors); conditions: with array of light emitting diodes; preclinical and human clinical trials in United States, Europe and Japan; cited from earlier work
[2] = test system: superficial venous anatomy of the ears; test: Photodynamic treatment of superficial venous anatomy of rabbit ears (IV LS11, then 664 nm LED light); type: in vivo, New Zealand White Rabbits
Experimental: The superficial venous anatomy of the ears of New Zealand White Rabbits were treated by injecting light-reactive agent LS11 (Talaporfin Sodium) in doses selected to approximate a human dose, and thereafter exposing the superficial venous anatomy to light at a wavelength of 664 nm in dose periods ranging from 8 to 12 minutes.
A total of twelve rabbits were treated. Each rabbit (weighing approximately six pounds) was intravaneously sedated for approximately 25 minutes using Ketamine and secured to a treatment table before being treated. The ears were shaved clean of hair and skin prepped with alcohol.
LS11 (Talaporfin Sodium, from Light Sciences Oncology, Inc.) was selected as the light reactive agent 14. […] Different doses of LS11 (at a concentration of 0.125 mg per cc) were administered to different rabbits, at 0.25 mg/kg; 0.50 mg/kg; 1.0 mg/kg; and 1.5 mg/kg, respectively. The doses were selected to approximate a human dose of 3 mg/ml to 10 mg/ml (a dose of 0.2 to 0.5 mg/kg).
The doses were administered to each rabbit's ear intravenously in a slow bolus method over a period of 5 minutes. After a pre-selected delay of ten minutes following the injection, a light-applying carrier 60 of the type shown in FIG. 18A (with a linear array of three LED's) was laid on the head of the rabbit over the treated ear, which was held tight against the carrier (see FIG. 20). […]

C=Cc1c(C)c2cc3nc(c(CC(=O)N[C@@H](CC(=O)O)C(=O)O)c4[nH]c(cc5nc(cc1[nH]2)C(C)=C5CC)c(C)c4C(=O)O)[C@@H](CCC(=O)O)[C@@H]3C [LS11, mono-L-aspartyl chlorine e6]
Efficacy in treating cancer (solid tumors) [1]: has shown efficacy in treating cancer (solid tumors) | Visible alterations in the superficial venous anatomy (shrinkage of veins) in treated ear ([2]; IV 0.25, 0.50, 1.0 or 1.5 mg/kg, 664 nm light for 8 to 12 minutes, other ear as control): Visible alterations in the superficial venous anatomy due to shrinkage of veins in the treated regions were observed | Alteration of superficial venous anatomy, treated ear vs control ear (FIG. 21) ([2]; LS11 dose 1.5 mg/kg IV, light dose 8 min of 664 nm light): visibly alter the superficial venous anatomy, due to shrinkage of veins in the targeted region
